Results on one compound are retold here after patent US20250049776A1, “AUTOPHAGY INDUCING COMPOUNDS AND USES THEREOF, IN PARTICULAR FOR A SYSTEMIC TREATMENT OF DISEASES AND CONDITIONS” (Samsara Therapeutics Inc., priority 2021, published 2025).

Structures can show the parent of a compound that is named as a salt. Where only a bound is given, the exact number is not on record here.

The subject of the assay is dopaminergic Tyrosine hydroxylase (TH)-positive neurons injured with MPTP. Briefly: Cellular model of Parkinson's disease (MPTP/MPP+ injury of primary mesencephalic neurons). Format: cell-based, Rat. The note with it: concentrations of 500 μM and 1 μM. From the text: This model (run by Neuro-Sys SAS, France) is based on a primary culture of dopaminergic Tyrosine hydroxylase (TH)-positive neurons injured with the dopaminergic neurons-specific toxin (DA-toxin) 1-methyl-4-phenyl-1,2,3,6 tetrahydropyridine (MPTP, a prodrug of MPP*) (Dauer and Przedborski, 2003). Any substances reducing DA-toxin neurotoxicity may be useful as a new therapeutic agent for the treatment or prevention of PD.
Primary culture of mesencephalic neurons: Rat dopaminergic neurons were cultured as described by Visanji et al., 2008 and Callizot et al., 2019. Briefly, pregnant female rat (Wistar) of 15 days of gestation were killed using a deep anesthesia with CO2 chamber and a cervical dislocation. The midbrains obtained from 15-day-old rat embryos (Janvier, France) were dissected under a microscope. The embryonic midbrains will be removed and placed in ice-cold medium of Leibovitz (L15) containing 2% of Penicillin-Streptomycin (PS) and 1% of bovine serum albumin (BSA). The ventral portion of the mesencephalic flexure, a region of the developing brain rich in dopaminergic neurons, was used for the cell preparations.
The midbrains were dissociated by trypsinisation for 20 min at 37° C. (solution at a final concentration of 0.05% trypsin and 0.02% EDTA). The reaction was stopped by the addition of Dulbecco's modified Eagle's medium (DMEM) containing DNAase I grade II (0.5 mg/mL) and 10% of foetal calf serum (FCS). Cells were then mechanically dissociated by 3 passages through a 10 ml pipette. Cells were then centrifuged at 180×g for 10 min at +4° C. on a layer of BSA (3.5%) in L15 medium. The supernatant was discarded and the cell pellets re-suspended in a defined culture medium consisting of Neurobasal supplemented with B27 (2%), L-glutamine (2 mM) and 2% of PS solution and 10 ng/mL of Brain-derived neurotrophic factor (BDNF) and 1 ng/mL of Glial-Derived Neurotrophic Factor (GDNF). Viable cells were counted in a Neubauer cytometer using the trypan blue exclusion test. The cells were seeded at a density of 40,000 cells/well in 96 well-plates (pre-coated with poly-L-lysine) and maintained in a humidified incubator at 37° C. in 5% CO2/95% air atmosphere. Half of the medium was changed every 2 days with fresh medium. The wells of first and last lines and columns […] (to avoid any edge effect) and were be filled with sterile water.
Test compounds and MPTP: • i) Pre-incubation. On day 6 of culture, the test compounds were dissolved in PBS or DMSO and incubated for 1 hour before the MPTP exposure. • ii) Injury. One hour after the application of test compound, MPTP was added to a final concentration of 4 μM, diluted in control medium still in presence of compounds/inhibitors for 48h. Test compounds were tested on one culture in 96-well plate (n=6 culture wells per condition).
Immunostaining: TH and α-Synuclein. 48 Hours after intoxication, the cell culture supernatant was removed, and the cells were fixed by a solution of 4% paraformaldehyde in PBS, pH=7.3 for 20 min at room temperature. The cells were washed twice in PBS, and then permeabilized. Non-specific sites were blocked with a solution of PBS containing 0.1% of saponin and 1% FCS for 15 min at room temperature. The cultures were incubated with: (a) monoclonal anti-Tyrosine Hydroxylase (TH) antibody produced in mouse at dilution of 1/10000 in PBS containing 1% FCS, 0.1% saponin, for 2 hours at room temperature, and (b) polyclonal anti-alpha synuclein (α-synuclein) antibody produced in rabbit at dilution of 1/200 in PBS containing 1% FCS, 0.1% saponin, for 2 h at room temperature.
Automatic computer analysis. For each condition, 20 pictures (representing the whole well area) were automatically taken using ImageXpress® (Molecular Devices) at 10× magnification (20 pictures, for TH and α-synuclein into TH neurons) using the same acquisition parameters. From images, analyses was directly and automatically performed by MetaXpress® (Molecular Devices).

Regarding `CCCN(C(=O)c1csc(-c2cnn(-c3ccccc3)c2)n1)[C@@H]1CCNC1` [Compound 171, (R)-2-(1-phenyl-1H-pyrazol-4-yl)-N-propyl-N-(pyrrolidin-3-yl)thiazole-4-carboxamide hydrochloride], the “decrease in α-syn area per dopaminergic TH positive neuron compared to MPP+ injury alone” value is listed as over 18%, the “increase in the length of the neurite network of dopaminergic TH positive neurons compared to the MPP+ injury alone” value is recorded as over 31% and the “increase in the number of dopaminergic TH positive neurons compared to MPP+ injury alone” value was over 25%.
